Assay results taken from patent US11345712B2, “Protein-targeting compounds and pharmaceutical compositions thereof, and their therapeutic applications” (BioTheryX, Inc., priority 2019, dated 2022).
pIC50: −log10 of the molar value.

Legend:
IKAROS = biological target: T1, IKAROS (Homo sapiens, UniProt Q13422+Q96SW2); experiment: Protein degradation assay (Western blot) in MV-4-11 cells: IKAROS; assay type: cell-based; conditions: 6-8 h, compound concentration 0.1 μM
T1 construct: Whole cell extracts were prepared using a radioimmunoprecipitation assay (RIPA) buffer; endogenous in cells; host or cells: MV-4-11
Description: (§1) MV-4-11 cells were grown in RPMI 1640 media supplemented with 10% fetal bovine serum, streptomycin, and penicillin. The cells were cultured at approximately 10^6 cells per mL and incubated in DMSO or a compound for 6-8 h. Whole cell extracts were prepared using a radioimmunoprecipitation assay (RIPA) buffer. Briefly, 3×10^6 cells were washed once in PBS, and the cell pellets were resuspended in the RIPA buffer and incubated for 15 min on ice. Cells debris was removed by centrifugation and the cleared whole cell lysates were transferred to new tubes for further analysis.
(§2) For Western blot analysis, whole cell protein extracts were separated on 4-12% SDS-polyacrylamide gels, transferred to nitrocellulose, and probed with primary antibodies. Membranes were subsequently washed and probed with IRDYE® secondary antibodies. The signal was detected using an ODYSSEY® Imaging System.
(§3) The following antibodies were used in the assays described herein: anti-eRF3/GSPT1: Abcam, ab126090 (Cambridge, Mass.); anti-Ikaros: Abcam, ab191394 (Cambridge, Mass.); anti-CK1α: Abcam, ab108296 (Cambridge, Mass.); β-actin (8H10D10) mouse monoclonal antibody: Cell Signaling Technology, #3700 (Danvers, Mass.); IRDYE® 680RD goat anti-rabbit antibody: LI-COR, 926-68071 (Lincoln, Nebr.); and IRDYE® 800CW goat anti-mouse antibody: LI-COR, 926-32210 (Lincoln, Nebr.).
(§4) The protein degradation results are summarized in Table 1, wherein A represents a value no less than 80%, B represents a value less than 80% but no less than 50%, C represents a value less than 50% but no less than 25%, and D represents a value less than 25% protein degradation at a compound concentration of 0.1 μM.

CK1α = biological target: T2, CK1α (Homo sapiens, UniProt P48729+Q96SW2); experiment: Protein degradation assay (Western blot) in MV-4-11 cells: CK1α; assay type: cell-based; conditions: 6-8 h, compound concentration 0.1 μM
T2 construct: Whole cell extracts were prepared using a radioimmunoprecipitation assay (RIPA) buffer; endogenous in cells; host or cells: MV-4-11
Description: as §1, §2, §3, §4

GSPT1 = biological target: T3, GSPT1 (Homo sapiens, UniProt P15170+Q96SW2); experiment: Protein degradation assay (Western blot) in MV-4-11 cells: GSPT1; assay type: cell-based; conditions: 6-8 h, compound concentration 0.1 μM
T3 construct: Whole cell extracts were prepared using a radioimmunoprecipitation assay (RIPA) buffer; endogenous in cells; host or cells: MV-4-11
Description: as §1, §2, §3, §4

IL-1β = experiment: Cytokine modulation assay, LPS-induced PBMCs or CD14+ monocytes: IL-1β; assay type: cell-based; conditions: 100 ng/mL LPS 18-24 h; for inhibition at 0.1 µM: 0.1 μM compound; for inhibition at 1 µM: 1 μM compound
Description: (§5) Frozen primary blood mononuclear cells (PBMCs) or frozen CD14+ mobilized peripheral blood monocytes were quick thawed, washed once with RPMI-1640 (10% FBS/1% Pen-Strep), and plated in 96 well plates at 200,000 cells per well. The cells were pretreated with DMSO only or with a compound for 1 h and then induced with 100 ng/mL lipopolysaccharide (LPS) for 18-24 h. The supernatant was analyzed for IL-1β, IL-6, and TNFα using Meso Scale assays. The negative control wells were treated with DMSO.

IL-6 = experiment: Cytokine modulation assay, LPS-induced PBMCs or CD14+ monocytes: IL-6; assay type: cell-based; conditions: 0.1 μM compound, 100 ng/mL LPS 18-24 h
Description: as §5

TNF-α = experiment: Cytokine modulation assay, LPS-induced PBMCs or CD14+ monocytes: TNFα; assay type: cell-based; conditions: 100 ng/mL LPS 18-24 h; for inhibition at 0.1 µM: 0.1 μM compound; for inhibition at 1 µM: 1 μM compound
Description: as §5

IL-2 = IL-2 analysis in anti-CD3 stimulated PBMCs; assay type: cell-based, human; conditions: 0.01 μM compound, PBMCs on anti-CD3 coated plates, 24 h
Description: For the IL-2 analysis, 96 well plates were precoated with 1 μg/mL anti-human CD3 antibody (OKT3, eBioscience Inc., San Diego, Calif.). After washed with PBS, the compound was added (50 μL/well), followed by addition of PBMCs diluted at 3-4 million cells/mL (150 μL/well). The plates were incubated for 24 h and the supernatants were collected for IL-2 analysis. IL-2 activity was measured as fold difference from the DMSO control. At a concentration of 0.01 μM, compounds I-1 and I-3 stimulated IL-2 production with 3.7 and 3.9 fold change, respectively, over the DMSO control.

MOLM-13 cells = experiment: MOLM-13 cell viability assay (CellTiter-Glo); assay type: cell-based; conditions: 3 days, concentration of 1 μM; for cytotoxicity at 1 µM: Homo sapiens, MOLM-13, 72 h, read-out: Antiproliferative Activity (inhibition, MOLM-13 cell viability)
Outline: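 MOLM-13 AML cells in RPMI 1640 with 10% FBS, seeded at 2,500 cells/well and exposed to compound or DMSO for 3 days at 37° C, 5% CO2. Viability read as CellTiter-Glo luminescence after 10 min shaking.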

THLE-2 cells = experiment: THLE-2 cell viability assay (CellTiter-Glo); assay type: cell-based; conditions: Homo sapiens, 72 h, 3 days
Description: THLE-2 cells were cultured using BEGM™ BULLETKIT™ supplemented with 10% fetal bovine serum, streptomycin, and penicillin. The cells were plated in white walled 96-well plates at 5,000 cells/well. After the cells were incubated in DMSO (control) or a compound for 3 days at 37° C. and 5% CO2, 100 μL of CELLTITER-GLO® (CTG) was added to each well. Following a 10 minutes incubation with shaking, luminescence was measured using an ENVISION® Multimode plate reader. In this example, compound II-1 was compared to reference compound A: […]

T3 sequence (P15170 whole entry): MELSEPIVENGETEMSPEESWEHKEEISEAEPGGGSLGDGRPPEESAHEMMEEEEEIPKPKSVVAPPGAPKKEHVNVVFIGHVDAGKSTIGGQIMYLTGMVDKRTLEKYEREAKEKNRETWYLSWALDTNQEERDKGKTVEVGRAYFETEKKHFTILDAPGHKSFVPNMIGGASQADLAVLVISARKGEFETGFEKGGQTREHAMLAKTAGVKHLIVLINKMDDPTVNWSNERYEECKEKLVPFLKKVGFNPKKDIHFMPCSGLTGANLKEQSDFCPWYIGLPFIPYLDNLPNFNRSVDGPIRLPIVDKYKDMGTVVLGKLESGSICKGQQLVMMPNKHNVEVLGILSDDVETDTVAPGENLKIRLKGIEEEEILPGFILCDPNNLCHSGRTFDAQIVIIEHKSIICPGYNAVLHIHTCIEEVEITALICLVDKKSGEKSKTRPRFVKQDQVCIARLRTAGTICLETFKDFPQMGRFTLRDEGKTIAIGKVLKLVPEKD
T3 sequence (Q96SW2 whole entry): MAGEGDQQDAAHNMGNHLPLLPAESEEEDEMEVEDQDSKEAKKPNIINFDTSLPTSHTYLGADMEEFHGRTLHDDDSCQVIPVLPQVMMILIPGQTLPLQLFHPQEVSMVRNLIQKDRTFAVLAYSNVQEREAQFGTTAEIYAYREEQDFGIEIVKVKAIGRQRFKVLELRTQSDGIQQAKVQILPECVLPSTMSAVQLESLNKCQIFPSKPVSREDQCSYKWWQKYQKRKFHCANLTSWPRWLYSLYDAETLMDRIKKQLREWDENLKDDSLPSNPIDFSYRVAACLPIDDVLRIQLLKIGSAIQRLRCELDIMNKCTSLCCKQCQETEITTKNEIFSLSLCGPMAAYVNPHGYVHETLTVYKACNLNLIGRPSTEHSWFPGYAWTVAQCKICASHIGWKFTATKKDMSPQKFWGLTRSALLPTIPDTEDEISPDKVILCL
T3 sequence (Q16531 whole entry partner): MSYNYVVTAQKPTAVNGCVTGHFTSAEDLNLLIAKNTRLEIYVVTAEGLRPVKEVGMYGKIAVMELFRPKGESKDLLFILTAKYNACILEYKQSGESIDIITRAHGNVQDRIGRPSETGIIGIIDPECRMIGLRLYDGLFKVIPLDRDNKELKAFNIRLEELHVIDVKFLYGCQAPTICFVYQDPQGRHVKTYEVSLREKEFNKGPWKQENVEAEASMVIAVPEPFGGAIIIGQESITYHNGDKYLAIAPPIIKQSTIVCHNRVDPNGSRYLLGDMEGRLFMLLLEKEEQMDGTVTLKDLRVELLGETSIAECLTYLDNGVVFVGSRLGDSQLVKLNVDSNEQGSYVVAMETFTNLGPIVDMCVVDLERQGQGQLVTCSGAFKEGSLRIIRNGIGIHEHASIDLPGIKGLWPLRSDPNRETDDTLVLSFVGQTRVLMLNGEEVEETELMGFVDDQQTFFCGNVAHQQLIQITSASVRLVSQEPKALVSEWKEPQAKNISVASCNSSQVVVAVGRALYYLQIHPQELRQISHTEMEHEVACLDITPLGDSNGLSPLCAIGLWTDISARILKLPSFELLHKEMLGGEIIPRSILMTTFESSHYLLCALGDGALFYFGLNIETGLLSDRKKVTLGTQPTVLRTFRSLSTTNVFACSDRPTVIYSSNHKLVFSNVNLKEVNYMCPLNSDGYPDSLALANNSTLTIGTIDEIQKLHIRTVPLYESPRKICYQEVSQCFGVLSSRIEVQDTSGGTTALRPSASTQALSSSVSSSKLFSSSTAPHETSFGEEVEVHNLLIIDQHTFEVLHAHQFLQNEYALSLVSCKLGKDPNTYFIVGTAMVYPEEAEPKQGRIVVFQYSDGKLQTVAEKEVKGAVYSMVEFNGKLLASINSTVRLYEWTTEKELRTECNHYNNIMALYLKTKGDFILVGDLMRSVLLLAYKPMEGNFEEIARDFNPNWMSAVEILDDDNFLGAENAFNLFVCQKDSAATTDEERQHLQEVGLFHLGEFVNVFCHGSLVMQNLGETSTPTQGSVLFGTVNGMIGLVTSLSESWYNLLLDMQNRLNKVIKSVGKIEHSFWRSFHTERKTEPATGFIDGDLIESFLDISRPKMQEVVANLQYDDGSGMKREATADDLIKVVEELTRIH
T1 sequence (Q13422 whole entry): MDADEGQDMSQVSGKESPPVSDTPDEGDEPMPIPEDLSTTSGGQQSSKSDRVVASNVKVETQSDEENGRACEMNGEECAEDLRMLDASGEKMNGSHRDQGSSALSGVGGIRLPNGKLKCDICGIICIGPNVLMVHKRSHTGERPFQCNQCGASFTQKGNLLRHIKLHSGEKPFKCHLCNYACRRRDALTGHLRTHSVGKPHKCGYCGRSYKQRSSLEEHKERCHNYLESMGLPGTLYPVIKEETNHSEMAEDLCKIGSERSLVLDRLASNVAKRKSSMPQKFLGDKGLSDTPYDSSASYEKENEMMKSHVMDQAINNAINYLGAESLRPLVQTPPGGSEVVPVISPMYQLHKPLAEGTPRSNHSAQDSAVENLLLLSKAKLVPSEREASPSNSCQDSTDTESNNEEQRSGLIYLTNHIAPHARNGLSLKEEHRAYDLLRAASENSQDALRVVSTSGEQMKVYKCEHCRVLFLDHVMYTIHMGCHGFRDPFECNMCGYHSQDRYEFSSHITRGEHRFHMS
T1 sequence (Q96SW2 whole entry): as the sequence (Q96SW2 whole entry) above
T1 sequence (Q16531 whole entry partner): as the sequence (Q16531 whole entry partner) above
T2 sequence (P48729 whole entry): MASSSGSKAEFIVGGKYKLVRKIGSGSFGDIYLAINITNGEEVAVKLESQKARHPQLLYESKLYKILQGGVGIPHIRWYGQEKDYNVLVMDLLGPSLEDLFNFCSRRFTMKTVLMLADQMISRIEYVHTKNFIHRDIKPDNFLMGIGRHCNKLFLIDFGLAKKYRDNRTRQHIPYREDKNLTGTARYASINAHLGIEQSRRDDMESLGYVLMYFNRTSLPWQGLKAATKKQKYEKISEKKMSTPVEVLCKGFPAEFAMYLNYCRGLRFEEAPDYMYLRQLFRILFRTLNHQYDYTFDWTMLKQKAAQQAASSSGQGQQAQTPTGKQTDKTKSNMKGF
T2 sequence (Q96SW2 whole entry): as the sequence (Q96SW2 whole entry) above
T2 sequence (Q16531 whole entry partner): as the sequence (Q16531 whole entry partner) above

Protein Degradation IKAROS (IKAROS) | SMILES | Protein Degradation GSPT1 (GSPT1) | cytotoxicity at 1 µM (MOLM-13 cells) [%] | also measured
A (a value no less than 80%) | CC(C)(C)c1ccc(C(=O)C(=O)NCc2scc3c2CN(C2CCC(=O)NC2=O)C3=O)cc1 (centres unmarked) [Compound I-1, 2-(4-(tert-butyl)phenyl)-N-((5-(2,6-dioxopiperidin-3-yl)-4-oxo-5,6-dihydro-4H-thieno[3,4-c]pyrrol-1-yl)methyl)-2-oxoacetamide] | B (a value less than 80% but no less than 50%) |  | Protein Degradation CK1α (CK1α): B (a value less than 80% but no less than 50%); inhibition at 0.1 µM (IL-1β): > 80%; inhibition at 0.1 µM (IL-6): 50 to 80%; inhibition at 0.1 µM (TNF-α): > 80%; IL-2 production, fold change over the DMSO control (IL-2): 3.7 fold; Antiproliferative Activity (inhibition, MOLM-13 cell viability) (MOLM-13 cells): A (a value no less than 80%)
A (a value no less than 80%) | CC(C)(C)c1ccc(C(=O)C(=O)NCc2ccc3c(c2)CN(C2CCC(=O)NC2=O)C3=O)cc1 (centres unmarked) [Compound I-2, 2-(4-(tert-butyl)phenyl)-N-((2-(2,6-dioxopiperidin-3-yl)-1-oxoisoindolin-5-yl)methyl)-2-oxoacetamide] | A (a value no less than 80%) | > 80 | Protein Degradation CK1α (CK1α): B (a value less than 80% but no less than 50%)
A (a value no less than 80%) | O=C1CCC(N2Cc3c(csc3CNC(=O)C(=O)c3ccc(C4(C(F)(F)F)CC4)cc3)C2=O)C(=O)N1 (centres unmarked) [Compound I-3, N-((5-(2,6-dioxopiperidin-3-yl)-4-oxo-5,6-dihydro-4H-thieno[3,4-c]pyrrol-1-yl)methyl)-2-oxo-2-(4-(1-(trifluoromethyl)cyclopropyl)phenyl)acetamide] | B (a value less than 80% but no less than 50%) | > 80 | Protein Degradation CK1α (CK1α): A (a value no less than 80%); inhibition at 0.1 µM (IL-1β): > 80%; inhibition at 1 µM (IL-1β): > 80%; inhibition at 0.1 µM (IL-6): 25 to 50%; inhibition at 0.1 µM (TNF-α): > 80%; inhibition at 1 µM (TNF-α): > 80%; IL-2 production, fold change over the DMSO control (IL-2): 3.9 fold
A (a value no less than 80%) | CC(C)c1ccc(C(=O)C(=O)NCc2scc3c2CN(C2CCC(=O)NC2=O)C3=O)s1 (centres unmarked) [Compound I-4, N-((5-(2,6-dioxopiperidin-3-yl)-4-oxo-5,6-dihydro-4H-thieno[3,4-c]pyrrol-1-yl)methyl)-2-(5-isopropylthiophen-2-yl)-2-oxoacetamide] | C (a value less than 50% but no less than 25%) | > 80 | inhibition at 0.1 µM (IL-1β): > 80%; inhibition at 1 µM (IL-1β): > 80%; inhibition at 0.1 µM (TNF-α): > 80%; inhibition at 1 µM (TNF-α): > 80%
A (a value no less than 80%) | O=C1CCC(N2Cc3cc(CNC(=O)C(=O)c4ccc(C5(C(F)(F)F)CC5)cc4)ccc3C2=O)C(=O)N1 (centres unmarked) [Compound I-5, N-((2-(2,6-dioxopiperidin-3-yl)-1-oxoisoindolin-5-yl)methyl)-2-oxo-2-(4-(1-(trifluoromethyl)cyclopropyl)phenyl)acetamide] | A (a value no less than 80%) | > 80 | Protein Degradation CK1α (CK1α): C (a value less than 50% but no less than 25%)
 | Cc1ccc(NC(=O)NCc2cc3c(s2)C(=O)N(C2CCC(=O)NC2=O)C3)cc1N(C)C (centres unmarked) [II-1, 1-(3-(dimethylamino)-4-methylphenyl)-3-((5-(2,6-dioxopiperidin-3-yl)-6-oxo-5,6-dihydro-4H-thieno[2,3-c]pyrrol-2-yl)methyl)urea] | B (a value less than 80% but no less than 50%) | > 80 | inhibition at 1 µM (IL-1β): 25 to 50%; inhibition at 1 µM (TNF-α): 25 to 50%; pIC50 (THLE-2 cells): 5.05
 | CC(C)(C)c1ccc(C(O)(C(=O)NCc2scc3c2CN(C2CCC(=O)NC2=O)C3=O)C(F)(F)F)cc1 (centres unmarked) [II-133, 2-(4-(tert-butyl)phenyl)-N-((5-(2,6-dioxopiperidin-3-yl)-4-oxo-5,6-dihydro-4H-thieno[3,4-c]pyrrol-1-yl)methyl)-3,3,3-trifluoro-2-hydroxypropanamide] |  | < 25 | 
 | O=C1CCC(N2Cc3c(csc3CNC(=O)NCCCOc3ccccc3)C2=O)C(=O)N1 (centres unmarked) [II-145, 1-((5-(2,6-dioxopiperidin-3-yl)-4-oxo-5,6-dihydro-4H-thieno[3,4-c]pyrrol-1-yl)methyl)-3-(3-phenoxypropyl)urea] |  | 50 to 80 | 
 | O=C(CCCc1ccc(N2CCOCC2)cc1)NCc1scc2c1CN(C1CCC(=O)NC1=O)C2=O (centres unmarked) [II-146, N-((5-(2,6-dioxopiperidin-3-yl)-4-oxo-5,6-dihydro-4H-thieno[3,4-c]pyrrol-1-yl)methyl)-4-(4-morpholinophenyl)butanamide] |  | < 25 | 
 | CC(C)(C)c1ccc(C(C(=O)NCc2scc3c2CN(C2CCC(=O)NC2=O)C3=O)C(F)(F)F)cc1 (centres unmarked) [II-147, 2-(4-(tert-butyl)phenyl)-N-((5-(2,6-dioxopiperidin-3-yl)-4-oxo-5,6-dihydro-4H-thieno[3,4-c]pyrrol-1-yl)methyl)-3,3,3-trifluoropropanamide] |  | < 25 | 
 | CC(C)(C)c1ccc(NC(=O)NCc2scc3c2CN(C2CCC(=O)NC2=O)C3=O)cc1 (centres unmarked) [II-148, 1-(4-(tert-butyl)phenyl)-3-((5-(2,6-dioxopiperidin-3-yl)-4-oxo-5,6-dihydro-4H-thieno[3,4-c]pyrrol-1-yl)methyl)urea] |  | > 80 | 
 | O=C(/C=C/c1ccc(C2(C(F)(F)F)CC2)cc1)NCc1ccc2c(c1)CN(C1CCC(=O)NC1=O)C2=O (centres unmarked) [II-149, (E)-N-((2-(2,6-dioxopiperidin-3-yl)-1-oxoisoindolin-5-yl)methyl)-3-(4-(1-(trifluoromethyl)cyclopropyl)phenyl)acrylamide] |  | > 80 | 
 | O=C1CCC(N2Cc3cc(CNC(=O)C(F)(F)c4ccc(C5(C(F)(F)F)CC5)cc4)ccc3C2=O)C(=O)N1 (centres unmarked) [II-164, N-((2-(2,6-dioxopiperidin-3-yl)-1-oxoisoindolin-5-yl)methyl)-2,2-difluoro-2-(4-(1-(trifluoromethyl)cyclopropyl)phenyl)acetamide] |  | > 80 | 
 | O=C1CCC(N2Cc3c(csc3CNC(=O)C(F)(F)c3ccc(C4(C(F)(F)F)CC4)cc3)C2=O)C(=O)N1 (centres unmarked) [II-165, N-((5-(2,6-Dioxopiperidin-3-yl)-4-oxo-5,6-dihydro-4H-thieno[3,4-c]pyrrol-1-yl)methyl)-2,2-difluoro-2-(4-(1-(trifluoromethyl)cyclopropyl)phenyl)acetamide] |  | < 25 | 
 | Cc1ccc(NC(=O)NCc2cc3c(s2)C(=O)N(C2CCC(=O)NC2=O)C3)cc1Cl (centres unmarked) [reference compound A, reference compound] |  |  | pIC50 (THLE-2 cells): 6.10
